These results are taken from ChEMBL document CHEMBL1156543, “Identification of N-(4-piperidinyl)-4-(2,6-dichlorobenzoylamino)-1H-pyrazole-3-carboxamide (AT7519), a novel cyclin dependent kinase inhibitor using fragment-based X-ray crystallography and structure based drug design” (J Med Chem, 2008).

In series [1] the target is Cyclin-dependent kinase 2 (Homo sapiens, UniProt P24941).
Description: Inhibition of CDK2/Cyclin A by radiometric assay
Series [2] can be described thus: in vivo. The note with it: BALB/c, mouse, plasma, iv, 0.2 mg/kg.
Series [3] has as its target Cyclin-dependent kinase 1/cyclin B1 (Homo sapiens, UniProt P06493).
Description: Inhibition of CDK1/Cyclin B by radiometric assay
Series [4] concerns HCT-116. Put plainly: Antitumor activity against human HCT116 cells xenografted into SCID mouse at 18.2 mg/kg, ip bid for 10 days. The class given is functional. The following applies: HCT-116, ip, 240 h, route intraperitoneal.
Series [5] deals with HCT-116. Put plainly: Antitumor activity against human HCT116 cells xenografted into SCID mouse at 9.1 mg/kg, ip bid for 10 days. The format is functional. The note with it: HCT-116, ip, 240 h, route intraperitoneal. In general terms: Xenograft models place foreign cells or tissue in a host animal.
Series [6] deals with HCT-116. Put plainly: Antitumor activity against human HCT116 cells xenografted into SCID mouse at […], ip bid for 10 days. The format is functional. The following applies: HCT-116, ip, 240 h, dose 4.6 mg/kg, route intraperitoneal.
For series [7], the species on record is Mus musculus. The following applies: in vivo, ip, 10 mg/kg.
Series [8] relates to HCT-116. The following applies: dose 9.1 mg/kg; route intraperitoneal.
Description: Antitumor activity against human HCT116 cells xenografted into SCID mouse at 9.1 mg/kg, ip bid administered QDx10 schedule relative to control
Series [9] in a line: in vitro. The note with it: mouse, plasma.
Description: Protein binding in mouse plasma at 1 ug/ml after 30 mins
Series [10] concerns HCT-116. The experiment in a line: Antitumor activity against human HCT116 cells xenografted into BALB/c mouse at 10 mg/kg, ip bid administered QDx9 schedule relative to control. The class given is functional. The note with it: route intraperitoneal.

Cyclin-dependent kinase 1/cyclin B1, sequence (P06493 whole entry): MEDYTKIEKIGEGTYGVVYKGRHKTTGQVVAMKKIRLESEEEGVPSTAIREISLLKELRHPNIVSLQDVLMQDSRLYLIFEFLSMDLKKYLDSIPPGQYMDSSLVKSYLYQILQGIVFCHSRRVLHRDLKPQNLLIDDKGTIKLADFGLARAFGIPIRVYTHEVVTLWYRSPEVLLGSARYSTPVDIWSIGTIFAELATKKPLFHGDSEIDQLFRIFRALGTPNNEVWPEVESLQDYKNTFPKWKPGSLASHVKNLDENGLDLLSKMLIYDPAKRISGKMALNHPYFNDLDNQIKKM
Cyclin-dependent kinase 1/cyclin B1, sequence (P14635 whole entry, further chain): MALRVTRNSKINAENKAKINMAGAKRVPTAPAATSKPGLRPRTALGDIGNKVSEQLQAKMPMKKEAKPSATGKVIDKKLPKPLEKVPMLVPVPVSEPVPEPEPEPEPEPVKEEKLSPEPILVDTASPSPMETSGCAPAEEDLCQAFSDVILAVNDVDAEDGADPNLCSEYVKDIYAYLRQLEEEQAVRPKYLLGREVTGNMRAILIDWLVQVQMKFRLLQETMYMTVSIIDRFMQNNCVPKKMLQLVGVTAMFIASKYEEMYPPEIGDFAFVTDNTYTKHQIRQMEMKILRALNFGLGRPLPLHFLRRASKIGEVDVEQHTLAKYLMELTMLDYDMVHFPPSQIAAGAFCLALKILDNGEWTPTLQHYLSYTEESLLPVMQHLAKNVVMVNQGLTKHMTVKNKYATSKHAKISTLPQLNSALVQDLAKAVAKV

As to `O=C(CO)Nc1c[nH]nc1C(=O)Nc1ccc(F)cc1`, the 50% inhibitory concentration (IC50) (commonly the midpoint of a concentration-inhibition curve) in series [1] was found to be 730 nM.
The compound `O=C(NC1CCNCC1)c1n[nH]cc1NC(=O)c1c(F)cc(F)cc1F` returned an IC50 in [1] of 750 nM. In series [2], the clearance (as a rule, the volume of plasma or blood freed of the substance per unit of time) came to 71 mL/min/kg.
On to `Clc1cncc(Nc2ccccc2)n1`, for which, in series [1], half-maximal inhibition (IC50) required 7000 nM.
Consider `O=C(NC1CCCCC1)c1n[nH]cc1NC(=O)c1c(F)cccc1F`, for which inhibition in [3] was half-maximal at 55 nM (IC50). For the same compound, the clearance in [2] was determined as 65 mL/min/kg.
With `O=C(N[C@H]1CC[C@H](O)CC1)c1n[nH]cc1NC(=O)c1c(F)cccc1F`, the IC50 in [1] turned out to be 19 nM; in series [3] it was 45 nM. This compound also gave a clearance in [2] of 42 mL/min/kg.
Take `O=C(NC1CCNCC1)c1n[nH]cc1NC(=O)c1c(F)cccc1F` [listing 1 of 2 here]: in series [4], the inhibition in vivo (usually the change of the read-out against control, counted positive when it falls) at 18.2 mg/kg came out at 86%. In series [5], this compound yielded an inhibition in vivo at 9.1 mg/kg of 46%. Besides, in series [6], the inhibition in vivo at […] worked out at 22%.
As to `O=C(NC1CCNCC1)c1n[nH]cc1NC(=O)c1c(F)cccc1F` [listing 2 of 2 here], the AUC in [7] came to 3422 ng·h/g. Moreover, in series [8], the T/C (as a rule, the ratio of treated to control) worked out at 54%. In series [2], this compound displayed a clearance of 43 mL/min/kg. Also, the free fraction (fraction unbound) (usually free concentration divided by total concentration) at 0.5 h, 1 ug/ml in series [9] is 0.16.
Regarding `c1ccc2[nH]c(-c3cc[nH]n3)nc2c1`, in series [1], 25000 nM corresponded to half-maximal inhibition (IC50).
The compound `COc1cccc(F)c1C(=O)Nc1c[nH]nc1C(=O)NC1CCNCC1` yielded a T/C in series [10] of 62%. The compound also returned a concentration for half-maximal inhibition (IC50) in [1] of 350 nM. This compound displayed an AUC in series [7] of 3325 ng·h/g. In series [2], this compound had a clearance of 38 mL/min/kg. Moreover, the fraction unbound at 0.5 h, 1 ug/ml in [9] is 0.25.
Regarding `O=C(NC1CCNCC1)c1n[nH]cc1NC(=O)c1c(F)cccc1Cl`, inhibition in [1] was half-maximal at 110 nM (IC50). Besides, in series [2], the clearance worked out at 56 mL/min/kg.
As for `Cl.O=C(N[C@H]1CCCNC1)c1n[nH]cc1NC(=O)c1c(F)cccc1F`, the 50% inhibitory concentration (IC50) in [1] turned out to be 44 nM; in [3], 38 nM. For the same compound, the clearance in series [2] stood at 48 mL/min/kg.
In turn, `Nc1c[nH]nc1C(=O)Nc1ccc(F)cc1` had an IC50 in [1] of 85000 nM.
As for `N[C@H]1CC[C@H](NC(=O)c2n[nH]cc2NC(=O)c2c(F)cccc2F)CC1`, the 50% inhibitory concentration (IC50) was 38 nM in series [1] and 440 nM in series [3]. Also, in series [2], the clearance turned out to be 63 mL/min/kg.
Take `O=C(Nc1ccccc1)c1n[nH]c2ccccc12`: in [1], it took 3000 nM to reach half-maximal inhibition (IC50).
`O=C(NCC1CC1)c1n[nH]cc1NC(=O)c1c(F)cccc1F` came in with a clearance in series [2] of 66 mL/min/kg.
In the case of `O=C(Nc1ccc(F)cc1)c1n[nH]cc1NC(=O)c1c(F)cccc1F`, the half-inhibitory concentration (IC50) in [3] came to 10 nM. In [2], this compound returned a clearance of 40 mL/min/kg.
